# Measured values as given in PubChem BioAssay (NCI).
#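 48-hour exposure; five concentrations; linearly interpolated endpoints. Here, GI50 denotes the concentration required for 50% inhibition of growth. TGI is the concentration that stops growth completely.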
# Key:
# Experiment in all cases: inhibition of tumour cell growth, NCI panel, 48 h
# UACC-62 melanoma = system: UACC-62 melanoma
# NCI-H23 lung = system: NCI-H23 lung
# SF-268 CNS = system: SF-268 CNS
# SK-OV-3 ovarian = system: SK-OV-3 ovarian
# MDA-MB-231 breast = system: MDA-MB-231 breast
# SF-295 CNS = system: SF-295 CNS
# UO-31 renal = system: UO-31 renal
# A549 NSCLC = system: A549 NSCLC
# SW-620 colon = system: SW-620 colon
# OVCAR-8 ovarian = system: OVCAR-8 ovarian
Compound,GI50 (UACC-62 melanoma) [µM],TGI (UACC-62 melanoma) [µM],GI50 (NCI-H23 lung) [µM],TGI (NCI-H23 lung) [µM],GI50 (SF-268 CNS) [µM],TGI (SF-268 CNS) [µM],GI50 (SK-OV-3 ovarian) [µM],TGI (SK-OV-3 ovarian) [µM],GI50 (MDA-MB-231 breast) [µM],TGI (MDA-MB-231 breast) [µM],GI50 (SF-295 CNS) [µM],TGI (SF-295 CNS) [µM],GI50 (UO-31 renal) [µM],TGI (UO-31 renal) [µM],GI50 (A549 NSCLC) [µM],TGI (A549 NSCLC) [µM],GI50 (SW-620 colon) [µM],TGI (SW-620 colon) [µM],GI50 (OVCAR-8 ovarian) [µM],TGI (OVCAR-8 ovarian) [µM]
CN1CCN(C(=O)[C@@]2(C)CC[C@]3(C)CC[C@]4(C)C(=CC[C@@H]5[C@@]6(C)CC[C@H](OC(=O)c7cccnc7)C(C)(C)[C@@H]6CC[C@]54C)[C@@H]3C2)CC1,1.84,3.46,1.62,3.39,1.84,3.85,10.4,22,2.03,3.95,1.62,3.05,1.43,2.86,1.71,3.28,1.79,3.59,2.06,4.3
O=C1NC(c2cccc3ccccc23)Nc2ccccc21 (stereo unspecified),–,> 100,0.0262,24.8,0.0485,> 100,0.0316,0.252,–,3.03,0.0592,0.894,0.0362,> 100,0.0582,> 100,0.0203,> 56.6,0.0783,12
Cc1ccc2c(c1)C(=O)/C(=C/c1cccc(OCC(=O)c3ccc(Cl)cc3)c1)CS2,9.14,25.8,3.03,23.4,10.4,33.3,25.1,90.9,8.21,76.1,3.17,12.1,2.93,18.3,33.4,> 100,1.95,4.19,4.53,24.1
CCCCCCCCCCCCCC(=O)NO,–,11.5,–,31.1,–,26.9,–,73.5,–,> 100,–,60.9,–,25.3,–,42.9,–,82.6,–,50.7
O=c1oc2ccc(I)cc2c(=O)n1-c1ccc(I)cc1F,0.279,1.11,0.476,4.39,0.511,7.64,0.601,2.71,0.579,6.14,1.77,3.54,0.268,2.41,3,> 51.8,0.821,13.1,0.704,> 31.7
O=C(Nc1cccc(-n2ccc3c(NC(=O)c4ccccc4)nccc32)c1)c1ccc(Cl)c(Cl)c1,0.0535,1.63,0.342,2.47,0.19,2.18,0.0956,1.1,0.302,1.34,0.0645,1.31,0.573,2.18,0.136,1.71,0.106,1.48,0.274,1.86
CCCCNP1(NCCCC)=NP(NCCCC)(NCCCC)=NP(NCCCC)(NCCCC)=NP(NCCCC)(NCCCC)=N1,0.567,5.91,0.271,3.2,1.53,21.2,1.07,9.75,0.418,4.08,0.905,5.6,2.81,14.4,0.593,4.03,0.861,15.9,1.98,17.4
CCCn1cc(/C=N\N=C2\C(=O)Nc3ccc(C)cc32)c2ccccc21,2.24,12.1,3.13,38.2,3.33,28,11.7,67.1,1.81,7.4,8.41,96.6,2.28,61.8,7.18,39.6,2.97,35.3,5.41,> 100
Cn1c2ccccc2c2c(=O)n(CCCC(=O)NCCc3cnc[nH]3)c3c(-c4ccccc4)nnn3c21,9.87,17.6,13.3,46.9,11.7,31.6,10.2,18.7,9.27,18.6,9.18,17.8,7.46,14.8,12.8,24.2,13,30.2,10.1,20.8
CN(C)C[C@@H]1CCn2cc(c3ccccc32)C2=C(C(=O)NC2=O)c2cn(c3ccccc23)CCO1,0.792,> 10,2.95,> 10,4.1,> 10,2.08,> 10,1.68,9.49,3.3,> 10,0.539,3.23,2.72,> 10,0.467,4.28,0.598,8.33
COc1ccc(C(=O)/C=C/c2c(C(F)(F)F)nc3ccccn23)cc1OC,–,> 100,1.66,> 26.9,2.07,> 24.7,2.38,6.13,3.06,8.55,3.15,42.5,1.62,29.5,3.38,> 100,0.527,> 100,1.06,> 25.1
CCc1nc(N)nc(N)c1-c1ccc(N(C)Cc2ccccc2)c([N+](=O)[O-])c1,–,13,–,24.4,–,37.9,–,33.6,–,36.1,–,15.3,–,16,–,16,–,26.5,–,30
C#Cc1cccc(Nc2ncnc3ccc(-c4cnc(N)nc4)cc23)c1,1.83,11.4,3.67,> 100,1.79,20.6,1.53,4.74,2.05,11,2.56,12.2,0.515,7.75,2.02,14.4,4.23,17.7,3.69,33.1
CC1OC(OC2C(O)C(OCCc3ccc(O)c(O)c3)OC(CO)C2OC(=O)/C=C/c2ccc(O)c(O)c2)C(O)C(O)C1O (stereo unspecified),19.1,45.5,> 100,> 100,> 100,> 100,> 100,> 100,16.3,34.7,31.5,> 100,23.7,57.6,> 100,> 100,28.7,72,> 100,> 100
CSc1nc(SC)c2c(C)c(Br)[nH]c2n1,–,> 100,–,> 100,–,> 100,–,> 100,–,> 100,–,> 100,–,> 100,–,> 100,–,> 100,–,> 100
CCCCCCCCCCCCSC1=CC(=O)C=CC1=O,7.59,> 36.9,5.69,21.6,2.24,10.4,12.2,> 33.4,5.36,17.1,1.44,4.75,0.578,2.54,9.46,> 50,17.9,> 50,1.79,32.1
CCN(CC)CCNc1ccc(N=Nc2cnc3ccccc3c2)c2ccccc12,1.7,3.21,1.6,3.07,1.74,3.48,1.72,3.2,1.12,2.38,1.77,3.38,1.51,3.05,1.92,3.5,1.83,3.47,2.09,4.19
CCc1c2c(nc3ccc(OC(=O)OCc4ccc(B5OC(C)(C)C(C)(C)O5)cc4)cc13)-c1cc3c(c(=O)n1C2)COC(=O)[C@]3(O)CC,< 0.01,0.104,< 0.0107,0.437,< 0.01,1.69,0.0151,> 100,0.892,43.7,< 0.01,1.48,0.0189,0.339,0.0556,5.45,< 0.0127,–,< 0.0111,> 71.4
CC(C)c1ccc(C(c2c(O)c3ccccc3oc2=O)c2c(O)c3ccccc3oc2=O)cc1,–,31.2,–,51.6,–,66.6,–,65.8,–,45.6,–,52,–,28.4,–,45.7,–,34.2,–,42.5
O=C1c2c(c3c4ccccc4n(CCCCCCN4CCOCC4)c3c3[nH]c4ccccc4c23)C(=O)N1O,1.91,4.62,15.8,45.9,15.8,39.4,20.6,43.2,2.17,7.76,16.8,35.7,1.25,3.11,39.8,> 100,1.68,3.93,2.44,9.39
